Values quoted from earlier work as cited in patent publication US20230165862A1, “CANCER THERAPY USING 3,5-DISUBSTITUTED BENZENE ALKYNYL COMPOUND AND MEK INHIBITOR” (TAIHO PHARMACEUTICAL CO., LTD., priority 2020, published 2023).
Each block holds one molecule with its values, some of them ahead of it.

How the values were obtained:
[1] = human; steady-state PK, dose of 40 mg in Stage 1 (21/7), once daily
[2] = human; 0.5 mg or more per dose once daily
[3] = human; 30 mg or more per dose twice daily

Time a concentration higher than 53 ng/mL (corresponds to 100 nM) is achieved [1]: 14 h
Structure (SMILES): O=C(c1ccc(F)c(F)c1Nc1ccc(I)cc1F)N1CC(O)([C@@H]2CCCCN2)C1 [Cobimetinib, [3,4-difluoro-2-[(2-fluoro-4-iodophenyl)amino]phenyl][3-hydroxy-3-[(2S)-2-piperidinyl]-1-azetidinyl]methanone]

Time a blood concentration of 1.3 ng/mL (corresponds to 10 nM) is achieved [2]: ≥ 24 h
Structure (SMILES): CC(=O)Nc1cccc(-n2c(=O)n(C3CC3)c(=O)c3c(Nc4ccc(I)cc4F)n(C)c(=O)c(C)c32)c1 [Trametinib, N-(3-{3-cyclopropyl-5-[(2-fluoro-4-iodophenyl)amino]-6,8-dimethyl-2,4,7-trioxo-3,4,6,7-tetrahydropyrido[4,3-d]pyrimidin-1(2H)-yl}phenyl)acetamide]

Time a blood concentration of 18.45 ng/mL (corresponds to 100 nM) is achieved [3]: more than 8 hours
Structure (SMILES): Cn1cnc2c(F)c(Nc3ccc(Br)cc3F)c(C(=O)NOCCO)cc21 [Binimetinib, 5-[(4-bromofluorophenyl)amino]-4-fluoro-N-(2-hydroxyethoxy)-1-methyl-1H-benzimidazole-6-carboxamide]
